This is an account of results in patent publication US4153729A, “Therapeutically useful cysteinol and homocysteinol derivatives” (Recherches Pharmaceutiques et Scientifiques, priority 1977, dated 1979).

Data set [1] can be described thus: Oral LD 50 determined according to the method of Karber and Behrens on mice. The note with it: mouse, in vivo, female mice 24 to 26 g, read-out: LD 50 per os. The procedure: The products of the invention are hardly toxic.
The oral LD 50 (see the table below) was determined according to the method of Karber and Behrens (Arch. Exp. Pathol. Pharm. 177, 1935, page 379) on mice EVIC CEBA .female. Swiss EOPS NMRI Han of 24 to 26 g weight.

The next data set concerns rats. Briefly: Hypolipemic activity: hyperlipidemia experimentally induced by Triton in rats. More on the design: key: NS: non-significant result. The note with it: 18 h after i.v. Triton; for Hypolipemic activity, percentages of diminution: Triglycerides / Hypolipemic activity, percentages of diminution: total lipids / Hypolipemic activity, percentages of diminution: β-lipoprotein / Hypolipemic activity, percentages of diminution: Cholesterol: single p.o. dose mg/kg: clofibrate 225, Ex 1, 2: 500, Ex 3: 270, Ex 4: 127, Ex 5: 175, Ex 6: 310, Ex 12: 250, Ex 13: 140, Ex 14: 95; for Hypolipemic activity, percentages of diminution: optical serum density: serum at 691 nanometres, single p.o. dose mg/kg: Ex 1, 2: 500, Ex 3: 270, Ex 4: 127, Ex 5: 175, Ex 6: 310, Ex 12: 250, Ex 13: 140, Ex 14: 95. The data set is classed as in vivo. The procedure: The technique used to show these properties has been described by M. Friedman and S. E. Byers in : J. Exptl. Med. 97, 117, 1953 and likewise by S. Garattini and colleagues in Arzneim. Forsch. 9, 206, 1959.
The rats received intravenously 0.3 ml per 100 grams of body weight of a solution of Triton 13 39 at 10%. The products to be tested are administered simultaneously orally at a dose corresponding to a tenth of their LD 50, determined orally in mice, without the dose used exceeding 500 mg/kg.
Eighteen hours after the injection of Triton the animals are sacrificed by section of the carotid and the blood is collected to determined the lipid parameters : cholesterol (auto-analyser Technicon AA II Lieberman Burchard), beta- lipoproteins, (Burnstein), total lipids (Chabrol and Charonnat), triglycerides (Boehringer enzymatic).
The optical density of the serum at 691 nanometres is measured in each case. Each product was tested on ten animals. The statistic calculations were carried out on the averages affected by their divergence from the average using the Student test.
The reference compound used is clofibrate.

Data set [2] is described as follows: Solubility of the isolated product. The class given is physicochemical. Conditions: in words.

Where a name gives a salt, the structure may show the parent alone.

Regarding `CCOC(=O)C(C)(C)Oc1ccc(Cl)cc1` [Clofibrate, reference compound], in data set [1], the LD50 was determined as 2300 mg/kg.
As for `NC(CO)CSCSCC(N)CO` (centres unmarked) [Example 1, 2,8-diamino-4,6-dithia-1,9-nonanediol], the LD50 in data set [1] is greater than 5000 mg/kg. Also, in the data set with rats, the “Hypolipemic activity, percentages of diminution: Triglycerides” value is “NS”; the “Hypolipemic activity, percentages of diminution: total lipids” value is reported as “NS”; the “Hypolipemic activity, percentages of diminution: β-lipoprotein” value is on record as “NS”; the “Hypolipemic activity, percentages of diminution: optical serum density” value is reported as “NS”. The solubility result in data set [2] is “soluble in the cold in water, alcohol, ether”.
For the compound `NC(CO)CSCCCCSCC(N)CO` (centres unmarked) [Example 2, 2,11-diamino-4,9-dithia-1,12-dodecanediol], in data set [1], the LD50 amounted to 5000 mg/kg. In the data set with rats, the “Hypolipemic activity, percentages of diminution: Cholesterol” value is recorded as “NS”; the “Hypolipemic activity, percentages of diminution: total lipids” value is recorded as “NS”; the “Hypolipemic activity, percentages of diminution: β-lipoprotein” value is “NS”; the “Hypolipemic activity, percentages of diminution: optical serum density” value is “NS”. In addition, the solubility result in data set [2] is recorded as “soluble in water, alcohols, ether”.
For the compound `NC(CO)CSCCCCCCSCC(N)CO` (centres unmarked) [Example 3, 2,13-diamino-4,11-dithia-1,14-tetradecanediol], the LD50 in data set [1] is 2700 mg/kg. In addition, the solubility entry in data set [2] was “soluble in water, alcohols, ether”.
With `NC(CO)CSCCCCCCCCSCC(N)CO` (centres unmarked) [Example 4, 2,15-diamino-4,13-dithia-1,16-hexadecanediol], the LD50 in data set [1] stood at 1280 mg/kg. For the same compound, the “Hypolipemic activity, percentages of diminution: total lipids” value in the data set on rats was “NS”. Moreover, the solubility entry in data set [2] is listed as “soluble in water, alcohols, ether”.
Consider `NC(CO)CSCCCCCCCCCCSCC(N)CO` (centres unmarked) [Example 5, 2,17-diamino-4,15-dithia-1,18-octadecanediol], for which the LD50 in data set [1] is 1750 mg/kg. In the data set on rats, the “Hypolipemic activity, percentages of diminution: total lipids” value is “NS” and the “Hypolipemic activity, percentages of diminution: β-lipoprotein” value is “NS”.
As for `NC(CO)CSSCC(N)CO` (centres unmarked) [Example 6, 2,7-diamino-4,5-dithia-1,8-octanediol], the LD50 in data set [1] was determined as 3100 mg/kg. Also, in data set [2], the solubility result is “soluble in water, methanol, ethanol”.
With `NC(CO)CCSCSCCC(N)CO` (centres unmarked) [Example 8, neutral oxalate of 2,10-diamino-5,7-dithia-1,11 undecanediol], the solubility result in data set [2] is “Soluble in water and alcohols”.
Same read-out and setting: under `NC(CO)CCSCCSCCC(N)CO` (centres unmarked) [Example 9, neutral oxalate of 2,11-diamino-5,8-dithia-1,12 dodecanediol] stands “soluble in water and alcohols”; under `NC(CO)CCSCCCCSCCC(N)CO` (centres unmarked) [Example 10, mandelate of 2,13-diamino-5,10-dithia-1,14-tetradecanediol], “soluble in water, alcohols and dimethylformamide”.
For the compound `NC(CO)CCSCCCCCSCCC(N)CO` (centres unmarked) [Example 11, mandelate of 2,14-diamino-5,11-dithia-1,15-pentadecanediol], the solubility result in data set [2] is “Soluble in water, alcohols, DMF”.
As to `NC(CO)CCSCCCCCCSCCC(N)CO` (centres unmarked) [Example 12, 2,15-diamino-5,12-dithia-1,16-hexadecanediol], in data set [1], the LD50 is 2500 mg/kg. In addition, in the data set with rats, the “Hypolipemic activity, percentages of diminution: Cholesterol” value was “NS”; the “Hypolipemic activity, percentages of diminution: Triglycerides” value is “NS”; the “Hypolipemic activity, percentages of diminution: total lipids” value is given as “NS”; the “Hypolipemic activity, percentages of diminution: optical serum density” value is given as “NS”. Moreover, in data set [2], the solubility entry was “soluble in water and alcohols”.
In the case of `NC(CO)CCSCCCCCCCCSCCC(N)CO` (centres unmarked) [Example 13, 2,17-diamino-5,14-dithia-1,18-octadecanediol], in data set [1], the LD50 was found to be 1400 mg/kg. In data set [2], the solubility entry is “soluble in water and alcohols”.
For `NC(CO)CCSCCCCCCCCCCSCCC(N)CO` (centres unmarked) [Example 14, 2,19-diamino-5,16-dithia-1,20-eicosanediol], the LD50 in data set [1] is 950 mg/kg. Besides, in the data set on rats, the “Hypolipemic activity, percentages of diminution: Cholesterol” value is “NS”; the “Hypolipemic activity, percentages of diminution: Triglycerides” value is “NS”; the “Hypolipemic activity, percentages of diminution: total lipids” value was “NS”; the “Hypolipemic activity, percentages of diminution: optical serum density” value is on record as “NS”. The solubility result in data set [2] is “soluble in water and alcohols”.
